From patent publication US20170152490A9, “USE OF ACTIVIN RECEPTOR-LIKE KINASE 1 (ALK-1) ANTAGONISTS IN THE TREATMENT OF CANCER” (Acceleron Pharma, Inc., priority 2014, published 2017)
“Also recorded” adds a separate entry of the source.

Columns and labels:
[1] = cited from earlier work; for typical maximum tolerated dose: body surface
[2] = test system: RPMI2650 xenograft (Nasal Septum Carcinoma cells, ATCC# CCL-30); assay: RPMI2650 head and neck carcinoma xenograft, tumor growth; type: in vivo, Mus musculus (Hsd: Athymic Nude-Foxn1nu); conditions: for TGI (tumor growth inhibition): day 30, after 3 weeks of dosing; for TGI (tumor growth inhibition) / GMDV (geo mean of final tumor volume/geo mean of initial tumor volume): ACE-041 10 mg/kg i.p. tiw, cisplatin 5 mg/kg i.v. qw; for GMDV (geo mean of final tumor volume/geo mean of initial tumor volume): day 30
Procedure: Tumor implantation. RPMI2650 (ATCC #CCL-30) were grown in Eagle's Minimum Essential Medium (ATCC Cat. No 30-2003), supplemented with fetal bovine serum (Gibco, Cat. No 26140) to a final concentration of 10%. Cell were harvested by mild trypsin digestion, washed in SFM and resuspended at a concentration of 50×10E6/ml in SFM. 0.1 ml (5×10E6 cells) of the cell suspension was injected subcutaneously in the right flank of a nude mouse.
Tumor measurement. Tumor size was measured manually using digital calipers. Tumor volume was calculated using the formula for a modified ellipse ((Length*Width2)/2).
Data Analysis. […] TGI was calculated according to the formula:
TGI=(GMDV(C)−GMDV(T))*100/(GMDV(C)−1), where GMDV=Geomean(final volumes)/Geomean(intitial volumes)

[3] = Animal body weight / tolerability in the RPMI2650 xenograft study; conditions: for Average changes in body weight: ACE-041 10 mg/kg i.p. tiw
Procedure: Nasal Septum Carcinoma cells (RPMI2650, ATCC# CCL-30) were injected subcutaneously in the right flank (5×10E6 in 0.1 ml of SFM) of 8-week old female mice. Nine days following implantation animals were randomized into 4 groups based on tumor volume. Animal dosing and tumor measurement was done three times a week.
Data Analysis. Graphing and statistical analysis of the tumor volume and body weight data was done using GraphPad Prism 5 software (GraphPad Software Inc., La Jolla, Calif.). Unpaired two-tailed t-test (with or w/o Welch correction) was used to determine statistical significance.

[4] = test system: advanced, refractory solid tumors including SCCHN; assay: Phase 1 study of dalantercept in patients with advanced, refractory solid tumors; type: in vivo, human; conditions: patients incl. SCCHN
[5] = test system: recurrent or metastatic squamous cell carcinoma of the head and neck (SCCHN); assay: Phase 2 study of Dalantercept in recurrent or metastatic SCCHN; type: in vivo, human
Procedure: Methods: 46 patients were enrolled and received Dalantercept SC Q3W at 80 mg (n=2), 0.6 mg/kg (n=13), and 1.2 mg/kg (n=31) until disease progression or unacceptable toxicity. Archived and optional biopsies and serum were collected for PD (pharmacodynamic) studies . The primary endpoint was response rate (RR) per RECIST 1.1 and secondary endpoints included progression free survival and overall survival. Key eligibility: recurrent or metastatic SCCHN of mucosal origin, >1 one prior platinum regimen, ECOG performance status ≦1, and no prior anti-angiogenic therapy.

[6] = Day 9 (randomization, start of dosing), s.c. RPMI2650 xenograft, nude mice
[7] = Day 30, ACE-041 10 mg/kg i.p. tiw x3, cisplatin 5 mg/kg i.v. qw x3
[8] = day 30, cisplatin 5 mg/kg i.v. qw

Molecule | typical maximum tolerated dose [1] | Tumor volume (geo mean) [2, 6] | Tumor volume (geo mean) [2, 7] | TGI (tumor growth inhibition) [2] | GMDV (geo mean of final tumor volume/geo mean of initial tumor volume) [2] | Average changes in body weight [3, 8] | cumulative body weight loss on average [3, 8] | body weight loss of some animals (as much as) ([3]; individual animals, triggered termination of the study) | maximum tolerated dose ([1]; typical, most patients) | clinical activity (in words) ([4]; listed as Dalantercept) | clinical activity (in words) ([4]; listed as dalantercept) | proportion of patients with stable disease (SD) >3 cycles ([5]; 0.6 mg/kg SC Q3W (n=3)) | proportion of patients with stable disease (SD) >3 cycles ([5]; 1.2 mg/kg SC Q3W (n=10)) | patients achieving a partial response (PR), RECIST 1.1 ([5]; 1 patient at 1.2 mg/kg SC Q3W, 41 evaluable patients) | frequency of grade >3 related AEs ([5]; 46 patients enrolled, SC Q3W) | most common drug-related adverse events (in words) ([5]; grade 1-2) | toxicity as monitored by changes in animal body weight (in words) ([3]; dosing period to day 30)
N.N.O=C([O-])C1(C(=O)[O-])CCC1.[Pt+2] [Carboplatin] | 600-800 mg/m^2 |  |  |  |  |  |  |  |  |  |  |  |  |  |  |  | 
N.N.[Cl][Pt][Cl] [Cisplatin, cisplatin] | 60-100 mg/m^2 | 185.8 mm3 | 1001 mm3 | 35% | 5.4 | −12.9% | ~13% | ≤ 20% | about 5 mg/kg/day |  |  |  |  |  |  |  | 
N.N.N.N.N.N.NCCCCCCN.NCCCCCCN.[Cl-].[Cl-].[Pt+2].[Pt+2].[Pt+2] [Triplatin] | 0.9-1.1 mg/m^2 |  |  |  |  |  |  |  |  |  |  |  |  |  |  |  | 
ACE-041: Soluble ALK1-IgG1 fusion protein (ALK1 extracellular domain-Fc), see SEQ ID NO: 3; ligand trap to BMP 9 and 10 |  | 181.4 mm3 | 1024 mm3 | 32% | 5.6 | 9.1% |  |  |  | demonstrated activity in a subset of patients with SCCHN | signs of clinical activity; also recorded: stable disease | 23% | 37% | 2.4% | 13% | anemia, fatigue, peripheral edema, headache, hyponatremia, and pleural effusion | did not show any sign of acute toxicity
